In assay [1] the target is T1, β2-adrenergic receptor (Rattus norvegicus, UniProt P10608).
T1 construct: endogenous in cells; host or cells: L6 myoblasts differentiated into myotubes
The experiment in a line: Glucose uptake in the presence of the selective β2-adrenergic receptor antagonist ICI-118551 (Biological Example 1). It is filed as cell-based. The following applies: L6-myotubes; test compound 1×10^−5 M; different concentrations of ICI-118551; FIGS. 1a-1c. The method, then:
L6-myoblasts were grown in Dulbecco's Modified Eagle's Medium (DMEM) containing 1 g/L glucose supplemented with 10% fetal bovine serum (FBS), 2 mM L-glutamine, 50 U/mL penicillin, 50 μg/mL streptomycin and 10 mM HEPES. Cells were plated at 1×10^5 cells per mL in 24-well plates. After reaching 90% confluence the cells were grown in medium containing 2% FBS for 7 days where upon cells differentiated into myotubes. The differentiated L6-myotubes were serum-starved overnight in medium containing 0.5% fatty-acid free BSA and stimulated with the test compound at a final concentration of 1×10^−5 M in the presence of different concentrations of the selective β2-adrenergic receptor antagonist ICI-118551. After 1 h 40 min the cells were washed with warm, glucose free medium twice and another portion of agonist was added to the glucose free medium. After another 20 min of incubation the cells were exposed to 50 nM ^3H-2-deoxyglucose for 10 min before washed in ice cold glucose free medium three times and lysed in 400 μL/well 0.2 M NaOH for 1 h at 60° C. The cell lysate was mixed with 4 ml scintillation buffer (Emulsifier Safe, Perkin Elmer) and the radioactivity was detected in a β-counter (Tri-Carb 4810TR, Perkin Elmer).

In assay [2] the test system is L6-myotubes. Description: Glucose uptake in differentiated L6-myotubes (Biological Example 2). It is filed as cell-based. As to conditions: for glucose uptake: L6-myotubes, FIGS. 2a-2d; for Emax at 10 µM: read-out: Biological example 2 (GU). The essentials: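 Uptake was quantified as radioactivity in 0.2 M NaOH lysates after a 10 min pulse of 50 nM ^3H-2-deoxyglucose. The pulse followed two agonist exposures at 1×10^−5 M final (isoprenaline or test compound): 1 h 40 min, then 20 min in glucose-free medium after washing. L6 myotubes had been starved overnight in medium with 0.5% fatty-acid-free BSA.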

In assay [3] the test system is L6-myotubes. Description: Measurement of intracellular cAMP levels in differentiated L6-myotubes (Biological Example 3). The class given is cell-based. As to conditions: for intracellular cAMP levels: L6-myotubes, 15 min stimulation, compared with isoprenaline, FIGS. 2a-2d; for Emax at 10 µM: 0.25 h. The method in brief: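 Intracellular cAMP quantified by AlphaScreen after ethanol extraction and lysis of L6 myotubes. Cells were serum-starved overnight, then exposed for 15 min to compound (final 1×10^−5 M) or isoprenaline in IBMX-containing (1 mM) HBSS buffer, pH 7.4.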

Assay [4] concerns the target T2, β2-adrenergic receptor (Homo sapiens, UniProt P07550).
T2 construct: expressed in transfected cells; host or cells: HEK293
The experiment in a line: β-arrestin 2 recruitment, Large BiT/Small BiT luciferase complementation in HEK293 cells (Biological Example 4). As to conditions: luminescence after 31 min, compared with isoprenaline, FIGS. 3a-3c. It is filed as cell-based. The method, then:
HEK293 cells are transfected with both the β2-adrenergic receptor attached with a Large BiT SNAP-tag protein, and with p-arrestin 2 attached to a Small BiT SNAP-tag protein. When cells are stimulated and the receptor recruits β-arrestin 2, the Small- and Large-BiT proteins merge, forming a functional luciferase enzyme, that in presence of furimazine generates light. After 31 min, the light is measured with a luminescence plate reader.

The subject of the next assay is C57Bl/6 mice. The experiment in a line: Body weight and lean mass in mice treated with dexamethasone (Biological Example 5). The following applies: male C57Bl/6 mice, daily s.c. for 3 weeks, dexamethasone sodium phosphate 10 mg/kg, Compound A 47.1 μmol/kg. The class given is in vivo. The method, then:
40 eight-week-old male C57Bl/6 mice kept on standard chow diet were grouped-caged (2-3 mice per cage) at 21° C. The mice had similar body weight and body composition and were divided into four groups (n=10) and were treated daily with subcutaneous injections for 3 weeks with either dexamethasone sodium phosphate (10 mg/kg) or Compound A (47.1 μmol/kg (corresponding to dose 10 mg/kg of the free base)), or a combination of dexamethasone and Compound A. Control mice received saline. Body weight and lean mass were measured after 6, 12 and 20 days of treatment.

Where [5] appears, read: glucose uptake in differentiated L6-myotubes, compound at 10 μM, activity relative to isoproterenol at 10 μM.
The mark [6] stands for this setting: intracellular cAMP in differentiated L6-myotubes, compound at 10 μM, activity relative to isoproterenol at 10 μM.
Where [7] appears, read: glucose uptake, compound at 10 μM relative to isoproterenol at 10 μM.
Where [8] appears, read: intracellular cAMP, compound at 10 μM relative to isoproterenol at 10 μM.

Bounds are passed on as bounds.

T1 sequence (P10608 whole entry): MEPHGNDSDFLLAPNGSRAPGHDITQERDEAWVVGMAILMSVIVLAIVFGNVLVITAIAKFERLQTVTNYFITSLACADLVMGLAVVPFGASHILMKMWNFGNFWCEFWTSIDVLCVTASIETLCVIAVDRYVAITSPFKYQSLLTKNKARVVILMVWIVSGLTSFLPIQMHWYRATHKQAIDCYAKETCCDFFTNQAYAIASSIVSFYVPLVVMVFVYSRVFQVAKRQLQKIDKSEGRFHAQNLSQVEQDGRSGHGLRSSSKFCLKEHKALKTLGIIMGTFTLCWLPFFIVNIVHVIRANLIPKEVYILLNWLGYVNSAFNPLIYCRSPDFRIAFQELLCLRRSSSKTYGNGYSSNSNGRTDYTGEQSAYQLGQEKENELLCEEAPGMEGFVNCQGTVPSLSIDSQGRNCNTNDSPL
T2 sequence (P07550 whole entry, species assumed): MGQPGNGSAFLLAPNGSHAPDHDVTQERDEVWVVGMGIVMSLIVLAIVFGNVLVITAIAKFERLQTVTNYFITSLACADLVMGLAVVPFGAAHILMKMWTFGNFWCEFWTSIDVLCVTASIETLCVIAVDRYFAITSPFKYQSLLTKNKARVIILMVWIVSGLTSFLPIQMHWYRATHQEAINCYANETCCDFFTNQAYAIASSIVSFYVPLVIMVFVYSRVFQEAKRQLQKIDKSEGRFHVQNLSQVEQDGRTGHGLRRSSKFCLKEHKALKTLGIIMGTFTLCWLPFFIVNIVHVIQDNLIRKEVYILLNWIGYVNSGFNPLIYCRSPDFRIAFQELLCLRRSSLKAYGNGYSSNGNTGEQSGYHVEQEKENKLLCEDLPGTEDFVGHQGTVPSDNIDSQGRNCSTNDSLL

On to `CC(C)(C)NC[C@H](O)c1cncc(F)c1.O=C(O)C(O)C(O)C(=O)O` [Compound B, (R)-2-(tert-Butylamino)-1-(5-fluoropyridin-3-yl)ethan-1-ol hemi-tartrate], for which the “glucose uptake promoted by the compound in the presence of ICI-118551” value at β2-adrenergic receptor [1] is on record as “inhibited in a dose-dependent manner”. The glucose uptake result in the assay on L6-myotubes [2] is reported as “full glucose uptake response”. For the same compound, the “intracellular cAMP levels” value in the assay with L6-myotubes [3] is given as “low intracellular cAMP levels”. Further, on β2-adrenergic receptor [4], the “β-arrestin 2 recruitment” value was “minimal p-arrestin 2 recruitment”.
Turning to `CC(C)(C)NC[C@H](O)c1cccc(F)c1.Cl` [Compound A, (R)-2-(tert-Butylamino)-1-(3-fluorophenyl)ethan-1-ol hydrochloride], the “glucose uptake promoted by the compound in the presence of ICI-118551” value at β2-adrenergic receptor [1] is given as “inhibited in a dose-dependent manner”. Moreover, the glucose uptake entry with L6-myotubes [2] is listed as “full glucose uptake response”. Further, in the assay on L6-myotubes [3], the “intracellular cAMP levels” value was “low intracellular cAMP levels”. For the same compound, the “β-arrestin 2 recruitment” value at β2-adrenergic receptor [4] is reported as “minimal p-arrestin 2 recruitment”. In addition, in the assay with C57Bl/6 mice (FIG. 4), the body weight result is “effect is reversed”. In addition, the lean mass result in the assay with C57Bl/6 mice (FIG. 5) is “effect is reversed”.
Regarding `CO[C@H]1CC[C@@H](CCC(C)(C)NC[C@H](O)c2cccc(F)c2)CC1` [Compound 264, (R)-2-{1,1-dimethyl-3-[(1s,4R)-4-methoxycyclohexyl]propylamino}-1-(m-fluorophenyl)-1-ethanol], the Emax at 10 µM is over 75% in the assay with L6-myotubes [2] (setting [5]) and 25 to 50% in the assay on L6-myotubes [3] (setting [6]).
In the same order, the values of `CC(C)(NC[C@H](O)c1cccc(F)c1)[C@H]1CC[C@H](O)CC1` [Compound 283, (R)-1-(m-fluorophenyl)-2-{1-methyl-1-[(1r,4R)-4-hydroxycyclohexyl]ethylamino}-1-ethanol] are 50 to 75% and under 25%.
In the same order, the values of `CO[C@H]1CC[C@H](CCC(C)(C)NC[C@H](O)c2cccc(F)c2)CC1` [Compound 265, (R)-2-{1,1-dimethyl-3-[(1r,4S)-4-methoxycyclohexyl]propylamino}-1-(m-fluorophenyl)-1-ethanol] are 50 to 75% and under 25%.
The corresponding values for `COc1ccc(C[C@H]2CC[C@H]([C@H](O)c3cccc(F)c3)N2)cc1` [Compound 374, (R)-{(2R,5R)-5-[(p-methoxyphenyl)methyl]-2-pyrrolidinyl}(m-fluorophenyl)methanol] are over 75% and under 25%.
Turning to `O[C@@H](CNCC[C@H]1CC[C@@H](OCc2ccccc2)CC1)c1cccc(F)c1` [Compound 287, (R)-1-(m-fluorophenyl)-2-{2-[(1s,4S)-4-(benzyloxy)cyclohexyl]ethylamino}-1-ethanol], the results for the Emax at 10 µM in the assay on L6-myotubes [2] (setting [5]) and in the assay on L6-myotubes [3] (setting [6]) were 50 to 75% and under 25%, respectively.
On to `CCCCNC[C@H](O)c1ccccc1F` [Compound 79, (R)-2-(butylamino)-1-(o-fluorophenyl)-1-ethanol], for which the results for the Emax at 10 µM in the assay on L6-myotubes [2] (setting [7]) and in the assay on L6-myotubes [3] (setting [8]) were over 75% and under 25%, respectively.
In the case of `CN(C)S(=O)(=O)[C@H]1CC[C@H](CC(C)(C)NC[C@H](O)c2cncc(F)c2)CC1` [Compound 465], the Emax at 10 µM lay within 50 to 75% in the assay on L6-myotubes [2] (setting [5]) and 25 to 50% with L6-myotubes [3] (setting [6]).
The corresponding values for `CC(C)(C[C@H]1CC[C@@H](N)CC1)NC[C@H](O)c1cccc(F)c1` [Compound 456] are over 75% and under 25%.
In the same order, the values of `CO[C@H]1CC[C@H](C[C@H]2CC[C@H]([C@@H](O)c3cccc(F)c3)N2)CC1` [Compound 334, (S)-[(2R,5R)-5-{[(1r,4R)-4-methoxycyclohexyl]methyl}-2-pyrrolidinyl] (m-fluorophenyl)methanol] are 25 to 50% and under 25%.
The corresponding values for `O[C@@H](c1cccc(F)c1)C12CCC(COCc3ccc(OC(F)(F)F)cc3)(CC1)N2` [Compound 487] are under 25% and under 25%.
Turning to `CC1(C)CC[C@H]([C@@H](O)c2cncc(O)c2)N1` [Compound 166, 5-{(S)-[(R)-5,5-dimethyl-2-pyrrolidinyl] hydroxymethyl}-3-pyridinol], the Emax at 10 µM was 25 to 50% with L6-myotubes [2] (setting [7]) and under 25% with L6-myotubes [3] (setting [8]).
With `O[C@H](c1cncc(F)c1)C12CCC(COCc3ccc(OC(F)(F)F)cc3)(CC1)N2` [Compound 490], the Emax at 10 µM in the assay on L6-myotubes [2] (setting [5]) was 50 to 75%; with L6-myotubes [3] (setting [6]), under 25%.
For `CC(C)(C[C@H]1CC[C@H](NC(=O)C(F)(F)F)CC1)NC[C@H](O)c1cccc(F)c1` [Compound 433], the “Biological example 2 (GU)” value with L6-myotubes [2] (setting [5]) is reported as “+++ (If a compound at 10 μM shows activity of more than 75% of that of isoproterenol at 10 μM, the activity is denoted with +++)”. The “Biological example 3 (CAMP)” value in the assay on L6-myotubes [3] (setting [6]) is “+ (if it is between 50 and 25% it is denoted with +)”.
As to `CCCCNC[C@H](O)c1ccc(O)cc1` [Compound 9, (R)-2-(butylamino)-1-(p-hydroxyphenyl)-1-ethanol], the results for the Emax at 10 µM in the assay with L6-myotubes [2] (setting [7]) and with L6-myotubes [3] (setting [8]) were over 75% and under 25%, respectively.
Turning to `CC(C)(NC[C@H](O)c1cncc(F)c1)[C@H]1CC[C@@H](O)CC1` [Compound 286, (R)-1-(5-fluoro-3-pyridyl)-2-{1-methyl-1-[(1s,4S)-4-hydroxycyclohexyl]ethylamino}-1-ethanol], the Emax at 10 µM is 25 to 50% with L6-myotubes [2] (setting [5]) and under 25% in the assay with L6-myotubes [3] (setting [6]).
In the same order, the values of `O[C@@H](c1cccc(F)c1)C12CCC(COCc3ccc(Cl)cc3)(CC1)N2` [Compound 395, (S)-(4-{[(p-chlorophenyl)methoxy]methyl}-7-azabicyclo[[2.2.1]]hept-1-yl)(m-fluorophenyl)methanol] are 50 to 75% and under 25%.
In the same order, the values of `O[C@@H](CNC[C@H]1CC[C@@H](O)CC1)c1cncc(F)c1` [Compound 269, (R)-1-(5-fluoro-3-pyridyl)-2-({[(1s,4S)-4-hydroxycyclohexyl]methyl}amino)-1-ethanol] are 25 to 50% and under 25%.
The corresponding values for `CC(C)(NC[C@H](O)c1cccc(F)c1)[C@H]1CC[C@H](OCc2ccccc2)CC1` [Compound 279, (R)-1-(m-fluorophenyl)-2-{1-methyl-1-[(1r,4R)-4-(benzyloxy)cyclohexyl]ethylamino}-1-ethanol] are 50 to 75% and under 25%.
For `CC12CC(C1)[C@@H]([C@H](O)c1ccccc1F)N2` [Compound 213], the Emax at 10 µM is over 75% with L6-myotubes [2] (setting [5]) and under 25% in the assay on L6-myotubes [3] (setting [6]).
For the compound `CC12CC(C1)[C@@H]([C@H](O)c1cccc(F)c1)N2` [Compound 188, (R)-{(S)-1-methyl-2-azabicyclo[[2.1.1]]hex-3-yl}(m-fluorophenyl)methanol], the Emax at 10 µM in the assay with L6-myotubes [2] (setting [7]) and in the assay on L6-myotubes [3] (setting [8]) was under 25% in each case.
Turning to `CC(C)(NC[C@H](O)c1cccc(F)c1)[C@H]1CC[C@@H](OCc2ccccc2)CC1` [Compound 280, (R)-1-(m-fluorophenyl)-2-{1-methyl-1-[(1s,4S)-4-(benzyloxy)cyclohexyl]ethylamino}-1-ethanol], the Emax at 10 µM is over 75% with L6-myotubes [2] (setting [5]) and under 25% in the assay on L6-myotubes [3] (setting [6]).
In the case of `COc1ccc(C[C@H]2CC[C@H]([C@@H](O)c3cccc(F)c3)N2)cc1` [Compound 375, (S)-{(2R,5R)-5-[(p-methoxyphenyl)methyl]-2-pyrrolidinyl}(m-fluorophenyl)methanol], the values for the Emax at 10 µM in the assay with L6-myotubes [2] (setting [5]) and in the assay with L6-myotubes [3] (setting [6]) were over 75% and under 25%, respectively.

(Values after US20260216294A1, “BETA 2-ADRENERGIC RECEPTOR AGONISTS FOR TREATMENT OR PREVENTION OF MUSCLE WASTING” (ATROGI AB, priority 2023, published 2026).)
